# Data reported in US20180256673A1, “METHODS FOR TREATING FUNGAL INFECTIONS” (priority 2015, published 2018).
# How the values were obtained:
# [1] = tested on: azole-resistant Candida albicans R357 strain; experiment: microbe, parasite or virus in culture; type: cell-based
# C. albicans NRRL Y-477 [2] = experiment: microbe, parasite or virus in culture; type: cell-based, Candida albicans
# [3] = tested on: C. glabrata ATCC 90030, ATCC 2001; experiment: microbe, parasite or virus in culture; type: cell-based, Candida glabrata
# C. parapsilosis CP02 [4] = experiment: microbe, parasite or virus in culture; type: cell-based, Candida parapsilosis
# C. krusei ATCC 6258 [5] = experiment: microbe, parasite or virus in culture; type: cell-based, Candida krusei
# [6] = tested on: azole-resistant Candida albicans (R357); experiment: Disseminated infection model in neutropenic ICR mice, kidney fungal counts (Example 10, Tables 22-23); type: in vivo
# [7] = tested on: Aspergillus fumigatus (ATCC 13073); experiment: Neutropenic mouse model of disseminated aspergillosis, survival; type: in vivo; conditions: in vivo
# [8] = Solubility of test articles in vehicle, visual observation (Table 22); type: physicochemical
# Method: Test Articles. […] Amphotericin B and fluconazole were in powder form. Amphotericin B was dissolved in 0.9% NaCl. Fluconazole was dissolved in water (WFI: water for injection).
# C. albicans NRRL Y-477 [9] = experiment: Broth microdilution MIC (CLSI), Examples 3 and 4
# Method: Antifungal susceptibility testing. […] MIC assays were performed in triplicate.
# [10] = tested on: C. glabrata ATCC 90030, ATCC 2001; experiment: Broth microdilution MIC (CLSI), Examples 3 and 4; conditions: for Broth MIC: 24 h, ~50% inhibition
# Method: (§1) Antifungal susceptibility testing. Candida strains were cultured aerobically at 35° C. on SDA plates or in RPMI 1640 broth (pH 7.0). […] MIC assays were performed in triplicate.
# C. parapsilosis CP02 [11] = experiment: Broth microdilution MIC (CLSI), Examples 3 and 4; conditions: CP02 wild-type; 24 h, ~50% inhibition
# Method: as §1
# C. krusei ATCC 6258 [12] = experiment: Broth microdilution MIC (CLSI), Examples 3 and 4; conditions: ATCC 6258 wild-type; 24 h, ~50% inhibition
# Method: as §1
compound,measurement,setting,value
"C[C@@H]1[C@H](O)[C@@H](C)/C=C/C=C/C=C/C=C/C=C/C=C/C=C/[C@H](O[C@@H]2O[C@H](C)[C@@H](O)[C@H](N)[C@@H]2O)C[C@@H]2O[C@](O)(C[C@@H](O)C[C@@H](O)[C@H](O)CC[C@@H](O)C[C@@H](O)CC(=O)O[C@H]1C)C[C@H](O)[C@H]2C(=O)O [AMB, amphotericin B]",Susceptibility (CLSI),[1]; C. albicans R357,S
same,MIC,[1]; endpoint 100% inhibition,0.5 µg/mL
same,MIC,"C. albicans NRRL Y-477 [2]; NRRL Y-477 P20-1, selecting drug ANID, Fks1 HS1 S645Y, 48 h read",0.5 µg/mL
same,MIC,"C. albicans NRRL Y-477 [2]; NRRL Y-477 P20-1, selecting drug CAS",0.25 µg/mL
same,MIC,"C. albicans NRRL Y-477 [2]; NRRL Y-477 P20-1, selecting drug CMP1, 48 h read",0.5 µg/mL
same,MIC,"[3]; ATCC 2001 P20-2, selecting drug ANID, Fks1 HS1 D632Y",1 µg/mL
same,MIC,"[3]; ATCC 2001 P20-2, selecting drug CAS",0.5 µg/mL
same,MIC,"[3]; ATCC 2001 P20-2, selecting drug CMP1",0.25 µg/mL
same,MIC,"[3]; ATCC 90030 P20-1, selecting drug ANID, Fks2 HS1 D666I, 48 h read",0.5 µg/mL
same,MIC,"[3]; ATCC 90030 P20-1, selecting drug CAS, Fks2 HS1 F659I D666Y, 48 h read",0.25 µg/mL
same,MIC,"[3]; ATCC 90030 P20-2, selecting drug CMP1",0.5 µg/mL
same,MIC,"C. parapsilosis CP02 [4]; CP02 P20-1, selecting drug ANID",0.5 µg/mL
same,MIC,"C. parapsilosis CP02 [4]; CP02 P20-1, selecting drug CAS",0.5 µg/mL
same,MIC,"C. parapsilosis CP02 [4]; CP02 P20-1, selecting drug CMP1",0.5 µg/mL
same,MIC,"C. krusei ATCC 6258 [5]; ATCC 6258 P20-2, selecting drug ANID",1 µg/mL
same,MIC,"C. krusei ATCC 6258 [5]; ATCC 6258 P20-2, selecting drug CAS, Fks1 HS2 I1366S",1 µg/mL
same,MIC,"C. krusei ATCC 6258 [5]; ATCC 6258 P20-2, selecting drug CMP1, Fks1 HS2 I1366S",1 µg/mL
same,reduction in fungal counts,"[6]; 3 mg/kg IV once, 72 hr time point",two log reduction
same,"antimicrobial effect versus vehicle (one-way ANOVA, Dunnett's test)","[6]; 48 and 72 hr after infection, Compound 1 3, 10, 30 mg/kg IP, amphotericin B 1 and 3 mg/kg IV, fluconazole 20 mg/kg PO",Significant effects
same,survival versus vehicle,[7],significantly longer survival than vehicle
same,Solubility,[8],S
same,MIC,"C. albicans NRRL Y-477 [9]; NRRL Y-477 spontaneous mutant, Fks1 HS1 S645P",0.25 µg/mL
same,Broth MIC,"C. albicans NRRL Y-477 [9]; NRRL Y-477 wild-type, 24 h, ~50% inhibition",0.5 µg/mL
same,MIC,"[10]; ATCC 2001 spontaneous mutant, Fks2 HS1 D666N",0.5 µg/mL
same,MIC,"[10]; ATCC 2001 spontaneous mutant, Fks2 HS1 D666Y",0.5 µg/mL
same,MIC,"[10]; ATCC 2001 spontaneous mutant, Fks2 HS1 R665G",0.25 µg/mL
same,MIC,"[10]; ATCC 2001 spontaneous mutant, Fks2 HS1 S663F",0.25 µg/mL
same,MIC,"[10]; ATCC 2001 spontaneous mutant, Fks2 HS1 ΔF659",0.25 µg/mL
same,MIC,"[10]; ATCC 2001 spontaneous mutant, Fks2 HS2 R1378S",0.25 µg/mL
same,Broth MIC,[10]; ATCC 2001 wild-type,0.5 µg/mL
same,MIC,"[10]; ATCC 90030 spontaneous mutant, Fks2 HS1 D666H",0.5 µg/mL
same,MIC,"[10]; ATCC 90030 spontaneous mutant, Fks2 HS1 ΔF659",0.5 µg/mL
same,Broth MIC,[10]; ATCC 90030 wild-type,0.5 µg/mL
same,Broth MIC,C. parapsilosis CP02 [11],0.5 µg/mL
same,Broth MIC,C. krusei ATCC 6258 [12],1 µg/mL
